Assay results as given in patent publication US20210363152A1, “AMINOAZINE AMIDES” (Hoffmann-La Roche Inc., priority 2018, published 2021).

Biological target: T1, Autotaxin enzyme (ATX) (Homo sapiens, UniProt Q13822)
T1 construct: purchased Echelon Biosciences, Inc. E-4000
Experiment: In vitro ATX assay (enzymatic ATX inhibition, LPC 14:0 substrate, choline oxidase/HRP absorbance readout)
Type: biochemical
Conditions: 0.3 mM LPC 14:0, 37° C., 4 hours, absorbance 555 nm
How it was run: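 Human ATX (10 ng/mL as added) in pH 9.0 Tris buffer with NaCl, MgCl2, CoCl2 and Triton X-100 was preincubated with compound for 15 min at 37 °C. LPC 14:0 (0.3 mM final) was then hydrolysed for 4 h at 37 °C. Released choline was detected by choline oxidase/HRP with 4-AAP/TOOS, read after 15 min RT as absorbance at 555 nm, giving banded IC50 values.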

Row | IC50 | Compound
1 | < 100 nM | O=C(c1cnc(NCc2cc(OC(F)(F)F)cc(N3CCC3)c2)nc1)N1CCC12COC2 [Example 158, (2-((3-(Azetidin-1-yl)-5-(trifluoromethoxy)benzyl)amino)pyrimidin-5-yl)(6-oxa-1-azaspiro[3.3]heptan-1-yl)methanone]
2 | < 100 nM | CCOc1cc(CNc2ncc(C(=O)N3CCC34COC4)cn2)cc(OC(C)C)c1 [Example 159, (2-((3-Ethoxy-5-isopropoxybenzyl)amino)pyrimidin-5-yl) (6-oxa-1-azaspiro[3.3]heptan-1-yl)methanone]
3 | < 100 nM | CCOc1cc(CNc2ncc(C(=O)N3CCC3C(C)(C)O)cn2)cc(OC(C)C)c1 (centres unmarked) [Example 160, (2-((3-Ethoxy-5-isopropoxybenzyl)amino)pyrimidin-5-yl) (2-(2-hydroxypropan-2-yl)azetidin-1-yl)methanone]
4 | 100 to 1000 nM | CC(C)Oc1ccc2c(c1)CC(Nc1ncc(C(=O)N3CCC34COC4)cn1)C2 (centres unmarked) [Example 161, (2-((5-Isopropoxy-2,3-dihydro-1H-inden-2-yl)amino)pyrimidin-5-yl)(6-oxa-1-azaspiro[3.3]heptan-1-yl)methanone]
5 | 100 to 1000 nM | CCOc1ccc2c(c1)CC(Nc1ncc(C(=O)N3CCC34COC4)cn1)C2 (centres unmarked) [Example 162, (2-((5-Ethoxy-2,3-dihydro-1H-inden-2-yl)amino)pyrimidin-5-yl)(6-oxa-1-azaspiro[3.3]heptan-1-yl)methanone]
